Results: US11499197B2, “Prognosis method of multiple myeloma” (CENTRE NATIONAL DE LA RECHERCHE SCIENTIFIQUE, priority 2017, dated 2022)

Columns and labels:
AMO1 = experiment: Cell Titer Glo viability, AMO1 HMCL; type: cell-based, human; details: for IC20 / IC50: AMO1, CTG viability
Method: (§1) AMO-1 and OPM2 HMCLs were purchased from DSMZ (Braunschweig, Germany), XG1 and XG21 were obtained as described (Moreaux et al., 2011). HMCLs were cultured in RPMI 1640 medium, 10% FCS (control medium). For XG-IL-6 dependent HMCLs 2 ng/ml IL-6 was added. Cells were cultured in 96-well flat-bottom microtiter plates in the presence of a concentration range of selected compounds: AZD7762 and OTSSP167 (Selleck, euromedex), HITOPK032, XL413, SRPIN340 (Sigma), AZ3146, Centrinone B (Tocris). Cell Titer Glo Luminescent Assay (Promega, Madison, Wis., USA) was used to assess cell viability, and the 50% inhibition (IC50) was determined using GraphPad Prism software (http://www.graphpad.com/scientific-software/prism/).
(§2) Statistical comparisons were done with unpaired or paired Student's t-tests. The effect of drug combination was evaluated using the methods developed by Chou and Talalay (Chou and Talalay, 1984) by calculating the combination Index (CI), with CI<1, CI=1, and CI>1 respectively indicating synergism, additive effects, and antagonism. Here we used CI=0.90-1.10 to indicated additivity.

OPM2 = experiment: Cell Titer Glo viability, OPM2 HMCL; type: cell-based, human; details: OPM2, CTG viability
Method: as §1, §2

XG1 = experiment: Cell Titer Glo viability, XG1 HMCL; type: cell-based, human; details: XG1, CTG viability
Method: as §1, §2

XG21 = experiment: Cell Titer Glo viability, XG21 HMCL; type: cell-based, human; details: XG21, CTG viability
Method: as §1, §2

AMO1 HMCL [1] = experiment: Apoptosis (annexin V, PARP cleavage) by flow cytometry; type: cell-based, human; details: for cell death via apoptosis (annexin) on co-treatment: AMO1, sub-lethal Melphalan or Lenalidomide + inhibitor at IC20, 4 days
From the text: FIG. 14 represents graphs showing that inhibitors increase apoptosis (annexin and PARP) in AMO1 cell line; Annexin and PARP were monitored by flow cytometry after 4 days treatments. p-value: *<0.05; **<0.01; ***<0.001.
FIG. 25 represents graphs illustrating that the co-treatments induce cell death and differentially affect DNA damages in AMO1 HMCL. Co-treatment with selected kinase inhibitors at IC20 and Melphalan or Lenalidomide.
(§3) Cells were culture in 12 wells plate for 4 days. Apoptotic cells were detected using phycoerythrin-conjugated Annexin V (PE-annexin V, BD Pharmingen). For the cell cycle and DNA damage, we used the Apoptosis, DNA damage and cell proliferation kit (BD), following the manufacturer's protocol.

AMO1 HMCL [2] = experiment: Cell cycle analysis by flow cytometry; type: cell-based, human; details: for cell cycle arrest: AMO1, single agent; for cell cycle arrest on co-treatment with melphalan or lenalidomide: AMO1, 4 days co-treatment
From the text: FIG. 15 represents graphs showing the effects of the treatments with inhibitors on cell cycle in AMO1 cells. p-value: *<0.05; **<0.01; ***<0.001.
FIG. 29 represents graphs illustrating that Co-treatments differentially affect cell cycle in AMO1 cell line. Cotreatment with Melphalan or Lenalidomide and A) AZD7762; B) OTSSP167; C) Centrinone B; D) XL413. Cell cycle was monitored by flow cytometry after 4 days co-treatments. p-value: *<0.05; **<0.01; ***<0.001.
as §3

[3] = system: primary MM cells from patients; experiment: Primary myeloma cell cytotoxicity (CD138 flow cytometry); type: cell-based, human; details: N=5 patients, 4 days of treatment
From the text: FIG. 16 represents graphs showing the % of CD138+ cells after treatment by AZD7762, OTSSP167 and Centrinone B in 5 different primary MM cells.
FIG. 17 represents graphs showing that the three tested inhibitors reduce % of tumor MM cells without toxicity on normal BM microenvironment cells from patients (N=5). CD138 amount was monitored by flow cytometry after 4 days of treatment.
Bone marrow of patients presenting with previously untreated MM (N=5) at the university hospital of Montpellier was obtained after patients' written informed consent in accordance with the Declaration of Helsinki and agreement of the Montpellier University Hospital Centre for Biological Resources (DC-2008-417). Primary myeloma cells of patients were cultured with or without graded concentrations of selected inhibitors and MMC cytotoxicity evaluated using anti-CD138-Phycoerythrin monoclonal antibody and CD38-Allophycocyanin (Beckman-Coulter) as described (Moreaux et al., 2012).

[4] = system: normal BM microenvironment cells from patients; experiment: Toxicity on non-tumoral bone marrow cells in primary patient cultures; type: cell-based, human; details: N=5 patients, 4 days
From the text: CD138 amount was monitored by flow cytometry after 4 days of treatment.

[5] = system: primary Mouse myeloma (5T33vv) and mouse myeloma cell line (5T33vt); experiment: Mouse myeloma cell viability (CTG); type: cell-based; details: 5T33vv and 5T33vt, CTG after 24, 48 or 96 hours
Method: FIG. 18 represents graphs cell viability of primary Mouse myeloma (5T33vv) and mouse myeloma cell line (5T33vt), monitored by CTG after 24, 48 or 96 hours treatment with indicated inhibitors.

[6] = system: HMCLs (AMO1, OPM2, XG1, XG21); experiment: HMCL viability, single and co-treatment with conventional MM drugs (CTG); type: cell-based, human; details: for synergy with lenalidomide / Lenalidomide treatment on co-treatment with kinase inhibitor / synergy with melphalan: inhibitor at IC20; for synergy with lenalidomide / synergy with melphalan: XG1, XG21, AMO1, OPM2; for Lenalidomide treatment on co-treatment with kinase inhibitor: AMO1 and OPM2
Method: as §1, §2
Keeping in mind the main objective of identifying alternative and efficient complementary treatment for MM patients, the inventors next performed co-treatment on HMCLs with commonly used therapeutic drugs in MM (e.g. Melphalan, Lenalidomide, Velcade) and the different kinases inhibitors. In order to fit to the goal of a combination treatment the inventors used an arbitrary […] for all the kinases inhibitors, which the inventors associated with various concentration of the standard therapeutic.

XG7 WT and XG7 Mres = experiment: Viability of melphalan sensitive and resistant cell lines (CTG); type: cell-based, human; details: inhibitor at IC20
Method: FIG. 32 represents a graph of the calculated IC50 for the co-treatment with melphalan and selected kinase inhibitors at IC20. Melphalan sensitive (XG7 WT) and Resistant (XG7 MRes) cell lines were treated for 4 days with the selected kinases inhibitors. Cell viability was monitored by the CTG. p-value: *<0.05; **<0.01; ***<0.001.
The facts that: 1) all drugs tested are actively decreasing HMCLs viability and induce apoptosis; 2) co-treatment with melphalan leads to synergy or potentialized the decrease of cell viability; 3) some of the selected kinases inhibitors can reverse the resistance to lenalidomide in AMO1 HMCL, led us to question the capability of these drugs to reverse or reduce also melphalan resistance. In that purpose, the inventors used a cell line developed in the inventors' laboratory, and that has been culture to resist to melphalan (Mres) compare to its negative control (WT) (FIG. 30). The inventors first tested the capacity of the different inhibitors to reduce cell viability in this model. All tested kinase's inhibitors lower cell viability of the control or the melphalan resistant cell line.

AMO1 HMCL [7] = experiment: DNA damage (γH2AX) by flow cytometry; type: cell-based, human; details: for γH2AX (DNA damages), used alone: AMO1, 4 days
From the text: FIG. 27 represents graphs illustrating that the co-treatments induce cell death and differentially affect DNA damages in AMO1 HMCL.
FIG. 28 represents graphs representing DNA damages following SRPIN340 and AZ3146 co-treatment in AMO1 cell line. γH2AX were monitored by flow cytometry after 4 days treatments. p-value: *<0.05; **<0.01; ***<0.001.
as §3

| Compound | IC20 (AMO1) [µM] | IC50 (AMO1) [µM] | IC50 (OPM2) [µM] | IC50 (XG1) [µM] | IC50 (XG21) [µM] | cell death via apoptosis (annexin) on co-treatment (AMO1 HMCL [1]) | cell cycle arrest (AMO1 HMCL [2]) | synergy with lenalidomide [6] | synergy with melphalan [6] | γH2AX (DNA damages), used alone (AMO1 HMCL [7]) | also measured |
| --- | --- | --- | --- | --- | --- | --- | --- | --- | --- | --- | --- |
| COc1c(Nc2cc(C)[nH]n2)nc(Sc2ccc(S(=O)(=O)Cc3cccc([N+](=O)[O-])c3F)cc2F)nc1N1CCCCC1 [Centrinone-B] | 0.024 | 0.421 | 0.44 | 0.226 | 1.39 | potentialized cell death only with lenalidomide | arrested the cell cycle in G0/G1 | synergized with the conventional treatment |  |  | number of tumoral cells (CD138+) [3]: reduced the number of tumoral cells; effect on non-tumoral cells [4]: barely affected; cell viability in mouse cellular model of multiple myeloma [5]: less effective on cell viability |
| N#Cc1c2nc3ccccc3nc2n2ccc(NC(=O)c3cccs3)cc12 [HI)TOPK] | 3.9 | 5.1 | 5 | 4.4 | 4.1 |  |  | synergized with the conventional treatment | synergized with the conventional treatment |  | melphalan resistance on co-treatment with melphalan (XG7 WT and XG7 Mres): reversed the melphalan resistance; Lenalidomide treatment on co-treatment with kinase inhibitor [6]: potentialized |
| CC(=O)c1cnc2ccc(-c3cc(Cl)c(O)c(Cl)c3)nc2c1N[C@H]1CC[C@H](CN(C)C)CC1 [OTSSP167] |  |  |  |  |  | increase cell death via apoptosis | arrested the cells in S phase | synergized with the conventional treatment | synergized with the conventional treatment | showed an activity on […]H2AX recruitment when used alone | IC20 (AMO1; Homo sapiens): 0.0054 µM; IC50 (AMO1; Homo sapiens): 0.0082 µM; IC50 (OPM2; Homo sapiens, OPM-2): 0.016 µM; IC50 (XG1; Homo sapiens): 0.012 µM; IC50 (XG21; Homo sapiens): 0.002 µM; cell cycle arrest on co-treatment with melphalan or lenalidomide (AMO1 HMCL [2]): no differences between single and co-treatment; γH2AX (DNA damages) on co-treatment with melphalan (AMO1 HMCL [7]; AMO1, inhibitor at IC20, 4 days): significantly potentialized the melphalan co-treatment by increasing […]H2AX; number of tumoral cells (CD138+) [3]: reduced the number of tumoral cells; effect on non-tumoral cells [4]: barely affected; cell viability in mouse cellular model of multiple myeloma [5]: demonstrated similar efficiency; Lenalidomide treatment on co-treatment with kinase inhibitor [6]: potentialized |
| O=C(Nc1cc(C(F)(F)F)ccc1N1CCCCC1)c1ccncc1 [SRPIN340] | 30 | 43.3 | 33.2 | 30.1 | 25.8 | didn't have any significant additional effect on cell death |  | synergized with the conventional treatment |  | showed an activity on […]H2AX recruitment when used alone | apoptosis as measured by annexin V staining and PARP clivage (AMO1 HMCL [1]; AMO1, single agent, 2 concentrations surrounding IC50, 4 days): all drugs but SRPIN340/SRPK1 induced apoptosis |
| Cl.O=c1[nH]c([C@@H]2CCCN2)nc2c1oc1ccc(Cl)cc12 [XL413] | 9.4 | 19.9 | 24.5 | 4.2 | 30.3 | increase cell death via apoptosis | arrested the cells in S phase |  | synergized with the conventional treatment | showed an activity on […]H2AX recruitment when used alone | cell cycle arrest on co-treatment with melphalan or lenalidomide (AMO1 HMCL [2]): no differences between single and co-treatment; melphalan resistance on co-treatment with melphalan (XG7 WT and XG7 Mres): reversed the melphalan resistance |
| Nc1cccc2c1CN(C1CCC(=O)NC1=O)C2=O (stereo not shown) [lenalidomide] |  |  |  |  |  |  |  |  |  | didn't demonstrate any particular effect | Lenalidomide IC50, treatment alone (AMO1; AMO1): undetermined; Lenalidomide effect on viability alone or in combination ([6]; lenalidomide resistant HMCLs XG1 and XG21): no effect of the treatment alone or in combination |
| N[C@@H](Cc1ccc(N(CCCl)CCCl)cc1)C(=O)O [melphalan] |  |  |  |  |  |  |  |  |  | increased the measured […]H2AX |  |
| AZ3146 | 1.4 | 2.6 | 1.9 | 1.2 | 3 | didn't have any significant additional effect on cell death | arrested the cell cycle in G0/G1 |  |  |  |  |
